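Tested at 5 concentrations; 48 h exposure; 96-well plates; endpoints linearly interpolated, else capped at highest concentration. TGI: total growth inhibition.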
Tests used:
Assay in all cases: NCI tumour cell line growth inhibition, 48 h
COLO 205 colon = test system: COLO 205 colon
SK-MEL-2 melanoma = test system: SK-MEL-2 melanoma
CAKI-1 renal = test system: CAKI-1 renal
BT-549 breast = test system: BT-549 breast
NCI-H522 lung = test system: NCI-H522 lung
MCF7 breast = test system: MCF7 breast
OVCAR-5 ovarian = test system: OVCAR-5 ovarian
HS 578T breast = test system: HS 578T breast
SF-268 CNS = test system: SF-268 CNS
CCRF-CEM leukemia = test system: CCRF-CEM leukemia
T-47D breast = test system: T-47D breast
SNB-19 CNS = test system: SNB-19 CNS
786-0 renal = test system: 786-0 renal
M14 melanoma = test system: M14 melanoma
HOP-92 NSCLC = test system: HOP-92 NSCLC
UACC-62 melanoma = test system: UACC-62 melanoma
ACHN renal = test system: ACHN renal
SF-539 CNS = test system: SF-539 CNS
OVCAR-3 ovarian = test system: OVCAR-3 ovarian

SMILES	TGI (COLO 205 colon)	TGI (SK-MEL-2 melanoma)	TGI (CAKI-1 renal)	TGI (BT-549 breast)	TGI (NCI-H522 lung)	TGI (MCF7 breast)	TGI (OVCAR-5 ovarian)	TGI (HS 578T breast)	TGI (SF-268 CNS)	TGI (CCRF-CEM leukemia)	TGI (T-47D breast)	TGI (SNB-19 CNS)	TGI (786-0 renal)	TGI (M14 melanoma)	TGI (HOP-92 NSCLC)	TGI (UACC-62 melanoma)	TGI (ACHN renal)	TGI (SF-539 CNS)	TGI (OVCAR-3 ovarian)
CCOC(=O)C1=c2[nH]c3cccc4cccc(c43)n2C(=O)CC1c1ccccc1 (stereo unspecified)	> 100 µM	> 100 µM	> 100 µM	> 100 µM	> 100 µM	> 100 µM	> 100 µM	> 100 µM	> 100 µM	> 100 µM	> 100 µM	> 100 µM	> 100 µM	> 100 µM	> 100 µM	> 100 µM	> 100 µM	–	–
COc1ccc(-c2nnc3n(Cc4ccccc4)c4ccccc4n3c2=O)cc1	> 100 µM	> 100 µM	45 µM	> 100 µM	80.7 µM	> 100 µM	> 100 µM	> 100 µM	> 100 µM	> 100 µM	> 100 µM	80 µM	25.1 µM	> 100 µM	95 µM	–	99.5 µM	34.3 µM	–
CC(C)OP(=O)(OC(C)C)c1ccc2c(c1)OCCOCCOCCOCCO2	> 100 µM	–	> 100 µM	> 100 µM	> 100 µM	> 100 µM	–	> 100 µM	> 100 µM	> 100 µM	> 100 µM	> 100 µM	> 100 µM	> 100 µM	–	> 100 µM	> 100 µM	> 100 µM	–
CCOC(=O)/C(N=Nc1ccc(-n2c(C)nc3ccc(Br)cc3c2=O)cc1)=C(/C)O	> 100 µM	> 100 µM	> 100 µM	> 100 µM	–	> 100 µM	> 100 µM	70.7 µM	> 100 µM	> 100 µM	> 100 µM	> 100 µM	> 100 µM	> 100 µM	> 100 µM	> 100 µM	> 100 µM	> 100 µM	> 100 µM
COC(=O)[C@@]1(Cc2ccc(O)cc2)C[C@@H]2Cc3ccccc3N2N1	> 100 µM	92.8 µM	> 100 µM	> 100 µM	> 100 µM	> 100 µM	> 100 µM	> 100 µM	> 100 µM	–	> 100 µM	> 100 µM	> 100 µM	> 100 µM	> 100 µM	> 100 µM	> 100 µM	> 100 µM	> 100 µM
O=C1C(Cl)C2(CC(/C=C/c3ccccc3O)=NN2c2cccc(S(=O)(=O)O)c2)N1c1nc2ccccc2s1 (stereo unspecified)	38.7 µM	40.8 µM	–	34.9 µM	14.6 µM	31.8 µM	45.8 µM	> 100 µM	43.4 µM	34.7 µM	37.4 µM	> 100 µM	30 µM	37.8 µM	37 µM	30.9 µM	53 µM	36.5 µM	–
OC(c1cc2ccccc2[nH]1)C1(c2cccnc2)SCCCS1 (stereo unspecified)	> 100 µM	> 100 µM	> 100 µM	> 100 µM	> 100 µM	> 100 µM	> 100 µM	> 100 µM	> 100 µM	–	> 100 µM	> 100 µM	> 100 µM	> 100 µM	> 100 µM	> 100 µM	> 100 µM	–	–
COC(=O)C(Cc1ccccc1)NP(=O)(O)OCC1OC(n2cc(I)c(=O)[nH]c2=O)CC1O (stereo unspecified)	> 100 µM	–	> 100 µM	> 100 µM	> 100 µM	> 100 µM	–	> 100 µM	> 100 µM	> 100 µM	> 100 µM	> 100 µM	> 100 µM	> 100 µM	> 100 µM	> 100 µM	> 100 µM	> 100 µM	> 100 µM
Nn1c(CCCCCCCCc2nnc(COc3ccccc3)n2N)nnc1COc1ccccc1	> 100 µM	> 100 µM	> 100 µM	> 100 µM	> 100 µM	> 100 µM	> 100 µM	> 100 µM	> 100 µM	–	> 100 µM	> 100 µM	> 100 µM	> 100 µM	> 100 µM	> 100 µM	> 100 µM	–	–
COc1cc(/C=C/c2nc(N)nnc2C)cc(OC)c1OC	> 53 µM	> 54.4 µM	> 100 µM	> 64 µM	21.7 µM	> 100 µM	> 58.9 µM	> 67.5 µM	> 54.4 µM	55.4 µM	> 100 µM	> 82.2 µM	> 60.6 µM	> 56.4 µM	> 100 µM	> 50.3 µM	> 56.1 µM	–	–
CN(C)CC1CCC/C(=C\c2ccc(OC(=O)/C=C/c3ccccc3)cc2)C1=O (stereo unspecified)	3.95 µM	7.79 µM	3.38 µM	4.47 µM	–	1.93 µM	7.24 µM	13.1 µM	8.67 µM	0.808 µM	2.58 µM	20.7 µM	2.06 µM	5.35 µM	4.65 µM	15.8 µM	6.62 µM	3.76 µM	3.63 µM
